Reference: EP4600367A1, “ENZYMATIC CLEAVAGE OF N-ALKYL COMPOUNDS AFTER CHEMOLYSIS OF POLYURETHANES” (Covestro Deutschland AG, priority 2024, dated 2025)

Columns and labels:
[1] = molecular target: T1, MaoN (Aspergillus niger, UniProt P46882); test: Enzymatic N-dealkylation assay MAOs/CAOs, HPLC product release; format: biochemical; conditions: 10 mM substrate, phosphate buffer pH 7,5, 37 °C, at least 48 h
T1 construct: His-tag (N); made in house; host or cells: Escherichia coli BL21(DE3) pET21a
Procedure: (§1) Die Expression der in Tabelle 1 gezeigten MAOs und CAOs erfolgte im Stamm E. coli BL21(DE3). Der Zellaufschluss erfolgte durch Ultraschallbehandlung und die Enzymreinigung über einen N-terminalen His-tag und das IMAC-System (Nickel-NTA) nach Angaben des Herstellers (Fisher Scientific GmbH) mit anschließender Umpufferung in einen Lagerpuffer (25 mM Tris/HCl pH 7.8, 1 mM dithiothreitol (DTT), 1 mM PMSF, 300 mM NaCl) über PD-10-Säulen nach Angaben des Herstellers (cytiva). Die erfolgreiche Expression und Aufreinigung wurde über ein SDS-PAGE kontrolliert. Tabelle 1: Untersuchte Enzyme im Rahmen der enzymatischen N-Dealkylierung.
(§2) Für MAOs/CAOs erfolgte die Reaktion im 200 µL Maßstab bei 37 °C für mindestens 48 h und 200 rpm. Dazu wurden 100 µL der oben beschriebenen Enzympräparate in Phosphatpuffer (bevorzugt zwischen 50 bis 200 mM, pH 7,5) mit 10 mM eines der sechs in Tabelle 2 gelisteten Substrate versetzt. Als Co-Solvenz für das Substrat wurde Dimethylsulfoxid eingesetzt (maximal 5 % (w/w) der finalen Umsetzungsreaktion). Um eine ausreichende Sauerstoffversorgung über den Kopfraum des Reaktionsansatzes zu gewährleisten, wurden Reaktionsgefäße oder Mikrotiterplatten in eckiger Ausführungsform und 10-fachem Gesamtvolumen bevorzugt.
(§3) Als Negativkontrollen wurden für alle Substrate und Bedingungen Assays ohne Enzymlösung durchgeführt. Alle Assays erfolgten mindestens in Triplikaten.
(§4) Zum Abstoppen der enzymatischen Reaktion und Extraktion erfolgte die Verdünnung des Reaktionsansatzes in gleichen Teilen Acetonitril. Die Proben wurden filtriert und die Produktfreisetzung per HPLC analysiert (ZORBAX Eclipse C18 Säule (Partikelgröße von […], 4,6 × 75 mm (Agilent Technologies, Santa Clara, USA), 40 °C, Laufmittel A: Acetonitril mit 5 % Reinstwasser, Laufmittel B: 10 mM Natriumphosphat-Puffer pH 7,0 mit 5 % ACN, Fluss: 1 mL/min). Das Profil der HPLC-Methode ist in Tabelle 3 gezeigt. Tabelle 4 zeigt die Elutionszeiten der Komponenten mit dieser Messmethode. Tabelle 3: Profil der HPLC-Methode.

[2] = molecular target: T2, MaoN5 (Aspergillus niger, UniProt P46882, D385S/I246M/N336S/T384N); test: as above; format: biochemical; conditions: for enzymatischer Abbau von Modell-N-Alkylverbindungen: MaoN5: 10 mM substrate, phosphate buffer pH 7,5, 37 °C, at least 48 h; for Aktivität / Freisetzung des Zielprodukts: MaoN5
T2 construct: His-tag (N); made in house; host or cells: Escherichia coli BL21(DE3) pET21a
Procedure: as §1, §2, §3, §4

[3] = system: ChaO YT02; test: as above; format: biochemical, Acinetobacter sp. YT-02; conditions: for enzymatischer Abbau von Modell-N-Alkylverbindungen: ChaO YT02: 10 mM substrate, phosphate buffer pH 7,5, 37 °C, at least 48 h
Procedure: as §1, §2, §3, §4

[4] = system: ChaoA L225A; test: as above; format: biochemical, Brevibacterium oxydans strain IH-35A; conditions: for enzymatischer Abbau von Modell-N-Alkylverbindungen: ChaoA L225A: 10 mM substrate, phosphate buffer pH 7,5, 37 °C, at least 48 h; for Aktivität / Freisetzung des Zielprodukts: ChaoA L225A
Procedure: as §1, §2, §3, §4

[5] = system: UPO #13M1; test: Enzymatic N-dealkylation assay UPOs with H2O2, HPLC; format: biochemical; conditions: for enzymatischer Abbau von Modell-N-Alkylverbindungen: UPO #13M1: 4 mM substrate, Tricine buffer 100 mM, 30 °C, at least 4 h, H2O2 added every 30 min
Procedure: (§5) Die vier Enzyme UPO #13, UPO #13M1, UPO #13M3 und UPO #13M5 wurden von Aminoverse B.V. bereitgestellt. Zusätzlich wurde das Wildtyp AaeUPO aus der Basidiomycete Agrocybe aegerita (Ullrich, R., et al. (2004). "Novel haloperoxidase from the agaric basidiomycete Agrocybe aegerita oxidizes aryl alcohols and aldehydes." Appl Environ Microbiol 70(8): 4575-4581) von Aminoverse B.V. erworben.
(§6) Für UPOs erfolgte die Reaktion im 300 µL Maßstab in Tricine Puffer (100 mM) bei 30 °C für mindestens 4 h und 200 rpm. Dazu wurden die von Aminoverse B.V. bereitgestellten Enzympräparate in dH2O gelöst (ca. 0,575 mg/mL) und 30 µL der Enzymlösung in den Assay eingesetzt, welcher mit 4 mM eines der sechs in Tabelle 2 gelisteten Substrate versetzt war. Der Assay wurde mit Zugabe des Co-Substrats H2O2 (1,5 µL einer 200 mM H2O2-Lösung) gestartet, welches alle 30 min wiederholt zugegeben wurde (final 12 µL H2O2).
as §3, §4

[6] = system: UPO #13M3; test: as above; format: biochemical; conditions: for enzymatischer Abbau von Modell-N-Alkylverbindungen: UPO #13M3: 4 mM substrate, Tricine buffer 100 mM, 30 °C, at least 4 h, H2O2 added every 30 min
Procedure: as §5, §6, §3, §4

[7] = system: UPO #13M5; test: as above; format: biochemical; conditions: for enzymatischer Abbau von Modell-N-Alkylverbindungen: UPO #13M5: 4 mM substrate, Tricine buffer 100 mM, 30 °C, at least 4 h, H2O2 added every 30 min
Procedure: as §5, §6, §3, §4

[8] = system: UPO #13; test: as above; format: biochemical; conditions: for enzymatischer Abbau von Modell-N-Alkylverbindungen: UPO #13: 4 mM substrate, Tricine buffer 100 mM, 30 °C, at least 4 h, H2O2 added every 30 min
Procedure: as §5, §6, §3, §4

[9] = molecular target: T3, AaeUPO (Cyclocybe aegerita, UniProt B9W4V6); test: as above; format: biochemical, Agrocybe aegerita; conditions: for enzymatischer Abbau von Modell-N-Alkylverbindungen: AaeUPO: 4 mM substrate, Tricine buffer 100 mM, 30 °C, at least 4 h, H2O2 added every 30 min
T3 construct: purchased Aminoverse B.V
T3 sequence (B9W4V6 44-371): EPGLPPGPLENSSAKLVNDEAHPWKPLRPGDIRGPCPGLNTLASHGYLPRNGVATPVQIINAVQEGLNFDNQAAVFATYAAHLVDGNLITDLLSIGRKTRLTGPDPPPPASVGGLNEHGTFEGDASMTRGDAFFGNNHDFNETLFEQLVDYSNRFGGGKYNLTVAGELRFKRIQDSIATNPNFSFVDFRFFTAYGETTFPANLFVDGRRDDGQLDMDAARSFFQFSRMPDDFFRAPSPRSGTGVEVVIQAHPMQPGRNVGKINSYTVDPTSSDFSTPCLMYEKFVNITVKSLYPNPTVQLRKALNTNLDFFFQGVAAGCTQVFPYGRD
Procedure: Die vier Enzyme UPO #13, UPO #13M1, UPO #13M3 und UPO #13M5 wurden von Aminoverse B.V. bereitgestellt.
Für UPOs erfolgte die Reaktion im 300 µL Maßstab in Tricine Puffer (100 mM) bei 30 °C für mindestens 4 h und 200 rpm. […] Der Assay wurde mit Zugabe des Co-Substrats H2O2 (1,5 µL einer 200 mM H2O2-Lösung) gestartet, welches alle 30 min wiederholt zugegeben wurde (final 12 µL H2O2).
as §3, §4

[10] = system: MAOs/CAOs; test: Enzymatic N-dealkylation assay, statement for the MAOs/CAOs as a group; format: biochemical
Procedure: as §1, §2, §3, §4

[11] = UPO #13M1, mol% relative to substrate used
[12] = UPO #13M3, mol% relative to substrate used
[13] = UPO #13M5, mol% relative to substrate used
[14] = UPO #13, mol% relative to substrate used
[15] = AaeUPO, mol% relative to substrate used

T1 sequence (P46882 whole entry): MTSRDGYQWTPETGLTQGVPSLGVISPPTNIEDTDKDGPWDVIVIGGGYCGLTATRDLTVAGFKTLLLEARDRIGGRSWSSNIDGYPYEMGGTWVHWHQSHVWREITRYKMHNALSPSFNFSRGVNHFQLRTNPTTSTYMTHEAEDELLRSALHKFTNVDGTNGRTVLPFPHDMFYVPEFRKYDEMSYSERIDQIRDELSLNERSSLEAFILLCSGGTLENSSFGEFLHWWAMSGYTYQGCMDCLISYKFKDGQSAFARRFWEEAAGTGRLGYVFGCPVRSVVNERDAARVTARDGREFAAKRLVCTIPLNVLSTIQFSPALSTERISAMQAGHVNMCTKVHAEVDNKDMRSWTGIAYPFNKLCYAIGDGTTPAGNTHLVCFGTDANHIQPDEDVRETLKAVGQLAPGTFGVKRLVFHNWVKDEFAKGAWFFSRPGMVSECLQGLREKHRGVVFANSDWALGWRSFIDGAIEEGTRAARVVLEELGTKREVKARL
T2 sequence (P46882 whole entry I246M/N336S/T384N/D385S): as the sequence (P46882 whole entry) above, with I246M, N336S, T384N, D385S counted along it

Row | Compound | enzymatischer Abbau von Modell-N-Alkylverbindungen: MaoN [1] | enzymatischer Abbau von Modell-N-Alkylverbindungen: MaoN5 [2] | Aktivität / Freisetzung des Zielprodukts [2] | enzymatischer Abbau von Modell-N-Alkylverbindungen: ChaO YT02 [3] | enzymatischer Abbau von Modell-N-Alkylverbindungen: ChaoA L225A [4] | Aktivität / Freisetzung des Zielprodukts [4] | enzymatischer Abbau von Modell-N-Alkylverbindungen: UPO #13M1 [5] | 4,4'-MDA-Freisetzung [5, 11] | enzymatischer Abbau von Modell-N-Alkylverbindungen: UPO #13M3 [6] | 4,4'-MDA-Freisetzung [6, 12] | enzymatischer Abbau von Modell-N-Alkylverbindungen: UPO #13M5 [7] | 4,4'-MDA-Freisetzung [7, 13] | enzymatischer Abbau von Modell-N-Alkylverbindungen: UPO #13 [8] | 4,4'-MDA-Freisetzung [8, 14] | enzymatischer Abbau von Modell-N-Alkylverbindungen: AaeUPO [9] | 4,4'-MDA-Freisetzung [9, 15] | Aktivität [10] | also measured
1 | CCNc1ccc(Cc2ccc(NCC)cc2)cc1 [N,N'-Diethyl-4,4'-MDA] | nein | schwach | nur sehr schwache 4,4'-MDA-Freisetzung | nein | schwach | nur sehr schwache 4,4'-MDA-Freisetzung | ja/deg^1 | 2,5 mol% | ja/deg^1 | 2,9 mol% | ja/deg^1 | 2,8 mol% | ja/deg^1 | 2,6 mol% | nein | 0 mol% |  | 
2 | CNc1ccc(Cc2ccc(NC)cc2)cc1 [N,N'-Dimethyl-4,4'-MDA] | nein | schwach | geringerer Aktivität | nein | schwach | geringerer Aktivität |  | 2,5 mol% |  | 2,8 mol% |  | 2,2 mol% |  | 2,1 mol% |  | 0,7 mol% |  | Abbau des eingesetzten Substrates ([6]; UPO #13M3, substrate no longer detected in HPLC chromatograms): vollständig abgebaut; Abbau des eingesetzten Substrates ([7]; UPO #13M5, substrate no longer detected in HPLC chromatograms): vollständig abgebaut; Abbau des eingesetzten Substrates ([8]; UPO #13, substrate no longer detected in HPLC chromatograms): vollständig abgebaut
3 | CN(C)c1ccc(Cc2ccc(N(C)C)cc2)cc1 [N,N,N',N'-Tetramethyl-4,4'-MDA, N,N,N',N'-Tetramethyl-4,4'-diaminodiphenylmethan] | nein | nein |  | nein | nein |  |  | 1,1 mol% |  | 1,4 mol% |  | 1,3 mol% |  | 1,1 mol% | nein | 0,1 mol% | keine reproduzierbare Aktivität | N,N'-Dimethyl-4,4'-MDA - Zwischenprodukt der enzymatischen Reaktion - nachgewiesen [5, 11]: 31,8 mol%; N,N'-Dimethyl-4,4'-MDA - Zwischenprodukt der enzymatischen Reaktion - nachgewiesen [6, 12]: 27,5 mol%; N,N'-Dimethyl-4,4'-MDA - Zwischenprodukt der enzymatischen Reaktion - nachgewiesen [7, 13]: 27,9 mol%; N,N'-Dimethyl-4,4'-MDA - Zwischenprodukt der enzymatischen Reaktion - nachgewiesen [8, 14]: 25,7 mol%; N,N'-Dimethyl-4,4'-MDA - Zwischenprodukt der enzymatischen Reaktion - nachgewiesen [9, 15]: 0 mol%
4 | c1ccc(CNc2ccccc2)cc1 [N-Benzylanilin] | nein | nein |  | schwach | schwach | spezifische Aktivität | deg |  | deg |  | deg |  | deg |  | deg |  |  | Aktivität / Freisetzung des Zielprodukts ([3]; ChaO YT02): spezifische Aktivität
5 | CCN(C)c1ccccc1 [N-Ethyl-N-Methylanilin] | nein | nein |  | nein | nein |  |  |  |  |  | nein |  |  |  | nein |  | keine Aktivität | Anilin als Zielprodukt ([5]; UPO #13M1): nachgewiesen; Anilin als Zielprodukt ([6]; UPO #13M3): nachgewiesen; Anilin als Zielprodukt ([8]; UPO #13): nachgewiesen
6 | CCNc1ccccc1 [N-Ethylanilin] |  | schwach |  | schwach |  |  | deg |  | deg |  | deg |  | deg |  | deg |  | spezifische Aktivität | 
